According to paper PMC8539010, “Utility of Bioluminescent Homogeneous Nucleotide Detection Assays in Measuring Activities of Nucleotide-Sugar Dependent Glycosyltransferases and Studying Their Inhibitors” (Molecules, 2021):

Assays:
[1] = target: T1, FUT7 (Fucosyltransferase 7) (Homo sapiens, UniProt Q11130); experiment: GDP-Glo bioluminescent enzyme assay, dose response with fetuin and GDP-fucose; format: biochemical
T1 sequence (Q11130 1-342): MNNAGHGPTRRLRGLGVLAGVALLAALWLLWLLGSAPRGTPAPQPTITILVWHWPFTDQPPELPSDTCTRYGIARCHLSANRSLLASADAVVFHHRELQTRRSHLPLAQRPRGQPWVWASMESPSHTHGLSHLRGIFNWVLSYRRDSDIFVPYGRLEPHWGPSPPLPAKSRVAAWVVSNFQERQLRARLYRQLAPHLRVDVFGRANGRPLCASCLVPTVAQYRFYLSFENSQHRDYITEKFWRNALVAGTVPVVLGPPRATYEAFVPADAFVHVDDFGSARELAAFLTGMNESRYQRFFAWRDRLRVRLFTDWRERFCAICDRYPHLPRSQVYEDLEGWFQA

[2] = target: T2, OGT (O-GlcNAc Transferase) (Homo sapiens, UniProt O15294); experiment: UDP-Glo bioluminescent enzyme assay, dose response with OGT peptide and UDP-GlcNAc; format: biochemical
T2 sequence (O15294 2-236 isoform O15294-4): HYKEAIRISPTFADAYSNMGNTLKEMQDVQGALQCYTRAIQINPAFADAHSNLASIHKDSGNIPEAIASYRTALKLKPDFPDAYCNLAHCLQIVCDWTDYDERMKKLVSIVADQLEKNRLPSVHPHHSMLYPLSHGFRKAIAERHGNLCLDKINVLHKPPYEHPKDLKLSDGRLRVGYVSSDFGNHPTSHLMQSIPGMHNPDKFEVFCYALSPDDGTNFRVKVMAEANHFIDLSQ

IC50 [2]	SMILES	IC50 [1]
	O=C(O)c1cc(O)c(O)c(O)c1 [Gallic acid]	0.6 µM
58 µM	O=C(O)C1CC(=O)N(CCC23CC4CC(CC(C4)C2)C3)C(=Nc2ccc(Cl)cc2)S1 (stereo not drawn) [ST045849]	
55 µM	N#Cc1c(SCc2ccc(C(=O)O)cc2)nc2c(c1-c1cccs1)CCCC2 [ST078925]	
